The record followed here is ChEMBL document CHEMBL4806967, “Heterocyclic kinase inhibitors and uses thereof” (2020).

In general, MTD refers to the largest dose that counted as tolerated. Usually inhibition stands for how much of the control response was suppressed. High values mean strong suppression, low ones little suppression.

Series [1] can be described thus: Free drug concentration in mouse at 30 mg/kg, po measured after 2 hrs. Format: ADME, organism-based. As to conditions: in vivo.
Series [2] is described as follows: Free drug concentration in mouse at 30 mg/kg, po measured after 6 hrs. Format: ADME, organism-based. As to conditions: in vivo.
Series [3] can be described thus: AUCextrap in CD-1 mouse at 1 mg/kg, iv. Format: ADME, organism-based. As to conditions: in vivo.
Series [4] in a line: AUCextrap in CD-1 mouse at 30 mg/kg, po. Format: ADME, organism-based. Conditions: in vivo.
Series [5] can be described thus: Free drug concentration in mouse at 30 mg/kg, po measured after 7 hrs. Format: ADME, organism-based. Conditions: in vivo.
The nature of series [6]: Free drug concentration in mouse at 30 mg/kg, po measured after 24 hrs. Type of series: ADME, organism-based. As to conditions: in vivo.
The nature of series [7]: Toxicity in C57BL/6 mouse assessed as signs of intolerance by measuring change in posture upto 100 mg/kg, gavage twice daily measured after 7 days. Type of series: organism-based. Conditions: in vivo, po, 168 h, time 7 day.
A short description of series [8]: Toxicity in C57BL/6 mouse assessed as signs of intolerance by measuring change in vocalization upto 100 mg/kg, gavage twice daily measured after 7 days. Type of series: organism-based. As to conditions: in vivo, po, 168 h, time 7 day.
The nature of series [9]: Toxicity in C57BL/6 mouse assessed as signs of intolerance by measuring ease of handling upto 100 mg/kg, gavage twice daily measured after 7 days. Format: organism-based. As to conditions: in vivo, po, 168 h, time 7 day.
Series [10] can be described thus: Toxicity in C57BL/6 mouse assessed as signs of intolerance by measuring change in lacrimation upto 100 mg/kg, gavage twice daily measured after 7 days. As to conditions: in vivo, po, 168 h, time 7 day. Type of series: organism-based.
Series [11] can be described thus: Toxicity in C57BL/6 mouse assessed as signs of intolerance by measuring chromo-dacryorrhea upto 100 mg/kg, gavage twice daily measured after 7 days. Format: organism-based. As to conditions: in vivo, po, 168 h, time 7 day.
The nature of series [12]: Toxicity in C57BL/6 mouse assessed as signs of intolerance by measuring change in salivation upto 100 mg/kg, gavage twice daily measured after 7 days. Format: organism-based. Conditions: in vivo, po, 168 h, time 7 day.
A short description of series [13]: Toxicity in C57BL/6 mouse assessed as signs of intolerance by measuring change in intact fur/coat upto 100 mg/kg, gavage twice daily measured after 7 days. Type of series: organism-based. As to conditions: in vivo, po, 168 h, time 7 day.
The nature of series [14]: Toxicity in C57BL/6 mouse assessed as signs of intolerance by measuring change in arousal upto 100 mg/kg, gavage twice daily measured after 7 days. Format: organism-based. As to conditions: in vivo, po, 168 h, time 7 day.
Series [15] can be described thus: Toxicity in C57BL/6 mouse assessed as signs of intolerance by measuring change in piloerection upto 100 mg/kg, gavage twice daily measured after 7 days. Format: organism-based. As to conditions: in vivo, po, 168 h, time 7 day.
A short description of series [16]: Toxicity in C57BL/6 mouse assessed as signs of intolerance by measuring change in normal motor movements upto 100 mg/kg, gavage twice daily measured after 7 days. Format: organism-based. Conditions: in vivo, po, 168 h, time 7 day.
A short description of series [17]: Toxicity in C57BL/6 mouse assessed as signs of intolerance by measuring tail pinch upto 100 mg/kg, gavage twice daily measured after 7 days. Format: organism-based. As to conditions: in vivo, po, 168 h, time 7 day.
Series [18] in a line: Toxicity in C57BL/6 mouse assessed as signs of intolerance by measuring diarrhoea upto 100 mg/kg, gavage twice daily measured after 7 days. Format: organism-based. Conditions: in vivo, po, 168 h, time 7 day.
Series [19] in a line: Toxicity in C57BL/6 mouse assessed as maximum tolerated dose administered through gavage twice daily measured after 7 days. Conditions: in vivo, po, time 7 day.
Series [20] has as its system MC-38. Kind of series: Anticancer activity against mouse MC38 cells subcutaneously implanted in C57BI/6N mouse assessed as tumour growth inhibition at 100 mg/kg, po once daily for 3 weeks. Format: functional. As to conditions: read-out: TGI.
A short description of series [21]: Toxicity in C57BI/6N mouse implanted subcutaneously with MC38 cells assessed as body weight loss at 30 to 100 mg/kg, po once daily for 3 weeks. Type of series: organism-based, MC-38. Conditions: in vivo, dose 30-100 mg/kg.
Series [22] can be described thus: Metabolic stability in mouse liver microsomes assessed as intrinsic clearance. Type of series: ADME, Microsome.
For series [23], the target named is hERG (KCNH2) (Homo sapiens, UniProt Q12809). Kind of series: Inhibition of human ERG expressed in HEK cells at 10 uM by automated electrophysiology assay. Format: cell-based. As to conditions: HEK cells that express human ERG.
In series [24] the test system is K562. Kind of series: Anticancer activity against human K562 cells xenografted in SCID mouse assessed as increase in survival at 10 to 30 mg/kg, iv once daily for 5 days. Format: functional, organism-based. As to conditions: dose 10-30 mg/kg, time 5.0 day.

Calls of active or inactive are those of the source. The calls are words filed in the database; no cut-off is given here. Where only a bound is given, the exact number is not on record here.

hERG (KCNH2), sequence (Q12809 whole entry): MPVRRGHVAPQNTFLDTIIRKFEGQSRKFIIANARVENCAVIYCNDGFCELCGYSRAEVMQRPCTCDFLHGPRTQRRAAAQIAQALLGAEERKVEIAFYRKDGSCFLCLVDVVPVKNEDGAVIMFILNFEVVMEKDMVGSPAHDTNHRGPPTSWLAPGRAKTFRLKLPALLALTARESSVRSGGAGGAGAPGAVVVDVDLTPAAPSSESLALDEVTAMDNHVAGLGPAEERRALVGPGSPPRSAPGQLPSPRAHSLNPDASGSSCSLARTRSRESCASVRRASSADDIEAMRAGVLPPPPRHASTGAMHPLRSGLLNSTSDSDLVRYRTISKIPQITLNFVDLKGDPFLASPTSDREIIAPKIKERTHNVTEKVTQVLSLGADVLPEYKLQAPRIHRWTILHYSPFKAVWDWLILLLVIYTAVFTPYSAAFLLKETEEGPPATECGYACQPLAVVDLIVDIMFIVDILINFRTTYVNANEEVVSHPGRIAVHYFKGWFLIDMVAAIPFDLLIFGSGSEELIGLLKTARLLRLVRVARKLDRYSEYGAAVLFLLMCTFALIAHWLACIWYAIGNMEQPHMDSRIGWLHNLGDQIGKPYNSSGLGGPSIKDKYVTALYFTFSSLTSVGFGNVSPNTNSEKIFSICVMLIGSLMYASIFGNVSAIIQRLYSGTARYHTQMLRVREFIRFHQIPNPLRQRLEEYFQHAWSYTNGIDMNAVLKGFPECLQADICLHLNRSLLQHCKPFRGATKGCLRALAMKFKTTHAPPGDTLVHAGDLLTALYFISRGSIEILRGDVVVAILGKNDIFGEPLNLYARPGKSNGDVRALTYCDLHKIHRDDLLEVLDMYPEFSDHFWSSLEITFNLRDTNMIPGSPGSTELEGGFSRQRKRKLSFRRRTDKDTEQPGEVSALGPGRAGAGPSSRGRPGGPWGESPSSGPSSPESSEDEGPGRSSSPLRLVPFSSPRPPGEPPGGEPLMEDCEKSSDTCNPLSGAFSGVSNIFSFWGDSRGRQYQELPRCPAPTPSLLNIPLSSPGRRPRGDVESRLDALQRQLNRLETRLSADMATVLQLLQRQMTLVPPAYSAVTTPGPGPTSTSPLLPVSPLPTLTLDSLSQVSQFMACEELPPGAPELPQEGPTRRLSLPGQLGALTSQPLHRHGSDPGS

Regarding `Cc1nc(Nc2ncc(C(=O)Nc3c(Cl)csc3C)s2)cc(N2CCN(CCO)CC2)n1`, the “Drug uptake(free)” value in [1] was 80 nM; in [2], 4 nM.
`Cc1nc(Nc2ncc(C(=O)Nc3c(C)csc3Cl)s2)cc(N2CCN(CCO)CC2)n1`: the “%AUCextra” value in [3] and in series [4] was 5.81% each time. For the same compound, the “Drug uptake(free)” value in series [1] turned out to be 32 nM; in [5], 3 nM; in series [6] it was 0.1 nM. The Activity result in series [7], in series [8], in [9], in [10], in series [11] and in series [12] was “Non-Toxic” throughout. For the same compound, the Activity result in series [13], in series [14], in [15], in series [16], in series [17] and in [18] was “Non-Toxic” throughout. The Activity entry in [21] is “Non-Toxic”. In addition, in series [19], the MTD at 168 h was at most 100 mg/kg. Besides, the inhibition in vivo at 100 mg/kg in [20] is 38%.
As to `Cc1nc(Nc2ncc(C(=O)Nc3c(C)csc3Cl)s2)cc(N2CCN(C)CC2)n1`, the figures for the “Drug uptake(free)” value in series [1] and in [2] were 44 nM and 8 nM, respectively.
For `Cc1nc(Nc2ncc(C(=O)Nc3ncccc3C)s2)cc(N2CCN(CCO)CC2)n1`, in [22], the CLint came to 38 µL/min/mg.
Compound `Cc1nc(Nc2ncc(C(=O)Nc3c(C)cccc3Cl)s2)cc(N2CCN(CCO)CC2)n1.O` [DASATINIB] registered an inhibition at 10 µM in series [23] of 36%. In addition, in series [1], the “Drug uptake(free)” value amounted to 30 nM. The result in series [24] was Active. In addition, the Activity entry in series [21] is on record as “Non-Toxic”.
For the compound `Cc1nc(Nc2ncc(C(=O)Nc3c(Cl)csc3Cl)s2)cc(N2CCN(CCO)CC2)n1`, the “Drug uptake(free)” value in [1] was 43 nM; in series [2], 5 nM.
